A short description of data set [1]: Particle size by Nanosizer/Zetasizer Nano-S (volumetric mean diameter). Type of data set: physicochemical. The following applies: resuspended in 2% Pluronic F-68, sonicated; two measurements. The method, then:
The dried particulate matter was characterized to assess the particle size properties. Briefly, particles were resuspended in 2% Pluronic® F-68 (BASF, Mt. Olive, NJ) and the suspension was sonicated for 10 minutes in a water bath sonicator at standard setting prior to analysis using a Nanosizer/Zetasizer Nano-S particle analyzer (model ZEN1600 (without zeta-potential measuring capacity), Malvern Instruments, Worcestershire, UK) according to the manufacturer's recommendations.

Data set [2] concerns M. abscessus strain 19977. Briefly: Chronic M. abscessus lung infection in SCID mice, inhaled treatment, lung CFU. Format: in vivo, SCID/Beige mice. The procedure:
In vivo studies were conducted in mice to separately model chronic M. abscessus infection. The animals were treated for 28 days and grouped according to dosage: vehicle, low dose BisEDT, high dose BisEDT, and amikacin. At the end of treatment, blood, lungs were collected for analysis. […] Histopathology was conducted on lung samples from the in vivo studies.
A total of sixty female SCID/Beige mice between 6-8 weeks of age were used. Mice were placed up to 4 animals per cage and allowed 1 week of acclimation prior to infection.
Inoculums of M. abscessus strain 19977 (MAB) used in this study were made from highly virulent frozen stocks with low passage numbers. Bacteria were allowed to grow to log phase after 4 days on 7H10 media agar plates at 37° C. Once confluent, inoculums were made by suspending bacteria at 10^9 in Hank's balanced salt solution (HBSS) as determined by optical density (O.D.) and further quantified by serial dilution to determine the CFU/mL of suspension. At this higher concentration of bacteria, only 20 μL of inoculum was necessary to deposit […] bacteria per mouse.
On the day of infection mice were anesthetized with isoflurane by the drop jar method. Mice were scruffed in a standard one-handed grip and the nose of the mouse is held of a tube containing gauze containing a small amount of isoflurane. Mice were monitored for breathing and once rapid breaths have slowed down initially the mouse is removed from direct anesthesia and 20 μL of bacterial suspension was deposited on the left nostril. The mice then slowly breath in the droplet. Each mouse was then held in hand until complete consciousness was obtained and then the mouse was replaced into its home cage. After infection was initiated, 3 weeks were allowed to pass in order to allow the bacteria to establish a chronic lung pathology for eventual treatment.
After establishing each infection, 12 mice were euthanized the day before treatment began to determine the baseline bacterial load. Mice were euthanized using CO2 in accordance with the recommendations of the Guide for the Care and Use of Laboratory Animals (NRC 2011). Lungs were collected and homogenized then serial diluted for CFU enumeration.
A nose-only inhalation exposure chamber from CH technologies was used for this experiment. Mice were split into four treatment groups, Vehicle (buffer containing no BisEDT), amikacin (100 μg/kg/day), BisEDT “low” (200 μg/kg/day), and BisEDT “high” (1000 μg/kg/day). Each treatment group consisted of 12 mice. […]
After 28 days of treatment with BisEDT, animals were euthanized by CO2 and secondary cardiac puncture to collect whole blood for quantitation of BisEDT concentration. […] CFUs were determined after serial dilution. […]

For data set [3], the system named is FITC-induced contact hypersensitivity. Nature of the data set: FITC-induced contact hypersensitivity in mice (ear swelling, histopathology, ear cytokines). Format: in vivo, BALB/c mice. The procedure: Protocol: Male BALB/c mice at 8 weeks old are used in the study.
All animals, except those in Group 1 (Sham), were sensitized topically (TOP) on the shaved abdominal skin with 200 μL of 0.5% Fluorescein Isothiocyanate (FITC) dissolved in 20% tributyrin in acetone on Days 1 and 2. On Day 7, animals were challenged by applying 20 μL of 0.5% FITC solution onto both sides of the right ear. Animals in Group 1 received nothing.
Vehicle, BisEDT test articles and reference compound (tacrolimus) were administered topically (TOP) once daily (QD) from Day 6 to Day 9 for 4 consecutive days (1 hour before FITC challenge on Day 7). The vehicle for BisEDT was phosphate-buffered saline (PBS).
• 2.5 mg/mL BisEDT topical suspension • 1.25 mg/mL BisEDT topical suspension—prepared as a 1:1 dilution of 2.5 mg/mL BisEDT topical suspension in sterile water and vortexed to ensure homogeneity
Analysis: Ear swelling was measured by an experimenter blinded to treatment group, with a dial thickness micrometer gauge as an index of inflammation 30 min before dosing on Days 7, 8, 9 and 10. On Day 10, ear swelling was measured at 24 hours after the last dosing. Ear edema was calculated by subtracting the thickness of Day 7 (normal control) from Day n (treated ear). Percentage inhibition was calculated according to the formula: (Ic−It)/Ic×100, where Ic and It refer to the increase of ear thickness (mm) both in the control and treated animals. Body weight was recorded daily during the study period.
The animals were sacrificed on Day 10 and the ears were then harvested and weighed. Half of the right ear was fixed in 10% formalin for histopathology, and the other half was processed for cytokine measurement (IL-18, IL-6, and IL-10) using ThermoFisher Mouse ProcartaPlex Kit by Luminex.

[4] abbreviates: topical, compared to vehicle control.

For `C1C[S][Bi]([S]CC[S][Bi]2[S]CC[S]2)[S]1` [BisEDT, 1,2-(Bis(1,3-dithia-2-bismolane)thio)ethane], in data set [1], the “peak VMD” value was “about 1.3 microns”. Moreover, the “CFU count in lung homogenates” value in data set [2] (200 μg/kg (low)) is recorded as “bacteriostatic effect”. Further, the “CFU count in lung homogenates” value in data set [2] (1000 μg/kg (high) delivered to the lungs) was “bactericidal”. Besides, the “lung CFU, high-dose group vs vehicle control” value in data set [2] (1000 μg/kg/day, p-value=0.0163) is given as “statistically significant difference”. In addition, the “lung CFU” value in data set [2] (inhaled 200 and 1000 μg/kg/day, 28 days, Kruskal-Wallis test) is given as “dose-dependent response”. Further, the “overall effect in the FITC-induced contact hypersensitivity model” value in data set [3] (mouse, in vivo) is “overall anti-inflammatory effect”. Moreover, in data set [3] (topical QD x 4, 2.5 and 1.25 mg/mL, compared to vehicle control), the ear swelling entry was “statistically significant and dose-dependent reduction”. For the same compound, in data set [3] (setting [4]), the epidermal thickness entry is listed as “significant reduction” and the histopathological score entry is on record as “significant reduction”.

Values taken from patent US20260174780A1, “BISMUTH-THIOL COMPOSITIONS AND METHODS FOR TREATING INFLAMMATORY DISEASES” (Microbion Corporation, priority 2022, published 2026).
